Reference: paper PMC5458626 (American heart journal, 2017)
Entries after “also recorded” stand apart in the source; their conditions may differ.

Legend:
Adverse events = format: in vivo, human
Exercise stress test = format: in vivo, human; settings: for Maximal VO2 at maximum exercise effort, follow-up measurement / VO2 at anaerobic threshold, follow-up measurement: day 5, mean ± SD
[1] = Echocardiography: myocardial performance index; format: in vivo, human; settings: for Blood pool MPI, follow-up measurement / Tissue Doppler MPI, follow-up measurement: day 5; for Blood pool MPI, difference FU – BL: day 5 minus baseline (negative = improvement)
[2] = Vascular function by peripheral arterial tonometry; format: in vivo, human; settings: for Augmentation Index adjusted to HR 75, follow-up measurement / Natural log of Reactive Hyperemic Index, follow-up measurement: day 5; for Natural log of Reactive Hyperemic Index, difference FU – BL: day 5 minus baseline (positive = improvement)
[3] = adult males, oral administration; ref [15]–[17]; cited from earlier work
[4] = Plasma pharmacokinetics of udenafil and DA-8164; settings: for DA-8164 Cmax: plasma metabolite
[5] = tested on: Phosphodiesterase Type 5 (PDE5); settings: major circulating metabolite; ref [15]–[17]; cited from earlier work
[6] = total udenafil, all cohorts, N=30
[7] = udenafil 37.5 mg daily, 5 days, N=6
[8] = udenafil 37.5 mg twice daily, 5 days, N=6
[9] = udenafil 125 mg daily, 5 days, N=6
[10] = once-daily dosing, dose increased 3.3 times (37.5 to 125 mg)
[11] = oral udenafil 37.5 mg bid for five days, mean (%CV), N=6
[12] = oral udenafil 37.5 mg daily for five days, mean (%CV), N=6
[13] = oral udenafil 125 mg daily for five days, mean (%CV), N=6
[14] = metabolite, oral udenafil 37.5 mg bid for five days, mean (%CV), N=6
[15] = metabolite, oral udenafil 37.5 mg daily for five days, mean (%CV), N=6
[16] = metabolite, oral udenafil 125 mg daily for five days, mean (%CV), N=6
[17] = once-daily dosing, dose increased 3.3 times
[18] = twice-daily dosing, dose increased 2.3 times

## CCCOc1ccc(S(=O)(=O)NCCC2CCCN2C)cc1-c1nc2c(CCC)nn(C)c2c(=O)[nH]1 (stereo not shown) [udenafil]
Adverse events; 30 subjects, all cohorts
  Subjects with facial flushing possibly or probably related to study medication: 33%
  Subjects with nasal congestion possibly or probably related to study medication: 20%
  Subjects with nausea possibly or probably related to study medication: 10%
Adverse events; across the five dosing cohorts
  Dose dependence of reported AEs: did not increase with increasing dose
Adverse events; of 30 subjects exposed to udenafil, all cohorts
  Subjects with headache (most common AE): 19 subjects
Adverse events; of the 30 subjects, all cohorts
  Subjects with headache possibly or probably related to study drug: 63%
Adverse events; study period, all dosing cohorts
  Drug-related serious adverse events: No drug-related serious AEs; also recorded: no drug-related serious adverse events were reported
Adverse events; [6]
  Subjects who experienced drug-related (probably or possibly) adverse events: Headache: 19 (63) n (%)
  Subjects who experienced drug-related adverse events: Abdominal discomfort: 2 (7) n (%)
  Subjects who experienced drug-related adverse events: Back pain: 1 (3) n (%)
  Subjects who experienced drug-related adverse events: Flushing: 10 (33) n (%)
  Subjects who experienced drug-related adverse events: Nasal congestion: 6 (20) n (%)
  Subjects who experienced drug-related adverse events: Nausea: 3 (10) n (%)
Adverse events; [7]
  Subjects who experienced drug-related (probably or possibly) adverse events: Headache: 3 (50) n (%)
  Subjects who experienced drug-related adverse events: Abdominal discomfort: 0 (0) n (%)
  Subjects who experienced drug-related adverse events: Back pain: 0 (0) n (%)
  Subjects who experienced drug-related adverse events: Flushing: 1 (17) n (%)
  Subjects who experienced drug-related adverse events: Nasal congestion: 1 (17) n (%)
  Subjects who experienced drug-related adverse events: Nausea: 1 (17) n (%)
Adverse events; udenafil 37.5 mg daily, 5 days, N=6, male subjects only
  Subjects who experienced drug-related adverse events: Spontaneous penile erection: 0 (0) n (%)
Adverse events; [8]
  Subjects who experienced drug-related (probably or possibly) adverse events: Headache: 4 (67) n (%)
  Subjects who experienced drug-related adverse events: Abdominal discomfort: 0 (0) n (%)
  Subjects who experienced drug-related adverse events: Back pain: 0 (0) n (%)
  Subjects who experienced drug-related adverse events: Flushing: 2 (33) n (%)
  Subjects who experienced drug-related adverse events: Nasal congestion: 2 (33) n (%)
  Subjects who experienced drug-related adverse events: Nausea: 1 (17) n (%)
Adverse events; [9]
  Subjects who experienced drug-related (probably or possibly) adverse events: Headache: 4 (67) n (%)
  Subjects who experienced drug-related adverse events: Abdominal discomfort: 1 (17) n (%)
  Subjects who experienced drug-related adverse events: Back pain: 0 (0) n (%)
  Subjects who experienced drug-related adverse events: Flushing: 1 (17) n (%)
  Subjects who experienced drug-related adverse events: Nasal congestion: 1 (17) n (%)
  Subjects who experienced drug-related adverse events: Nausea: 0 (0) n (%)
Exercise stress test; all dosing cohorts, 5 days
  Effect on exercise performance (baseline to day 5): did not improve in any of the dosing cohorts
Exercise stress test; udenafil 37.5 mg BID, N=6
  Maximal VO2 at maximum exercise effort, follow-up measurement: 28.8 ± 8.1 mL/min/kg
  VO2 at anaerobic threshold, follow-up measurement: 18.1 ± 3.0 mL/min/kg
Exercise stress test; udenafil 37.5 mg QD, N=5
  Maximal VO2 at maximum exercise effort, follow-up measurement: 24.7 ± 6.7 mL/min/kg
  VO2 at anaerobic threshold, follow-up measurement: 16.3 ± 2.0 mL/min/kg
Exercise stress test; udenafil 125 mg QD, N=6
  Maximal VO2 at maximum exercise effort, follow-up measurement: 28.6 ± 3.8 mL/min/kg
  VO2 at anaerobic threshold, follow-up measurement: 20.0 ± 3.2 mL/min/kg
[1]; all udenafil subjects, N=28
  Blood pool MPI, follow-up measurement: 0.52±0.17
  Tissue Doppler MPI, follow-up measurement: 0.71±0.20
[1]; udenafil 37.5 mg BID, N=6
  Blood pool MPI, follow-up measurement: 0.49±0.087
  Tissue Doppler MPI, follow-up measurement: 0.73±0.23
  Blood pool MPI, difference FU – BL: −0.003±0.10
[1]; udenafil 37.5 mg QD, N=5
  Blood pool MPI, follow-up measurement: 0.50±0.19
  Tissue Doppler MPI, follow-up measurement: 0.64±0.21
  Blood pool MPI, difference FU – BL: −0.052±0.17
[1]; udenafil 125 mg QD, N=5
  Blood pool MPI, follow-up measurement: 0.70±0.20
  Tissue Doppler MPI, follow-up measurement: 0.82±0.27
  Blood pool MPI, difference FU – BL: −0.054±0.18
[1]; all udenafil subjects, N=27
  Blood pool MPI, difference FU – BL: −0.059±0.13
[2]; all dosing cohorts, 5 days
  Effect on lnRHI and AI (baseline to day 5): no discernible differences between paired baseline and follow-up measures of lnRHI or AI in any dosing cohort
[2]; all udenafil subjects, N=28
  Augmentation Index adjusted to HR 75, follow-up measurement: −2.18±13.91
  Natural log of Reactive Hyperemic Index, follow-up measurement: 0.49±0.28
[2]; udenafil 37.5 mg BID, N=6
  Augmentation Index adjusted to HR 75, follow-up measurement: 2.89±7.11
  Natural log of Reactive Hyperemic Index, follow-up measurement: 0.53±0.29
  Natural log of Reactive Hyperemic Index, difference FU – BL: −0.07±0.17
[2]; udenafil 37.5 mg QD, N=6
  Augmentation Index adjusted to HR 75, follow-up measurement: −0.62±23.82
  Natural log of Reactive Hyperemic Index, follow-up measurement: 0.51±0.26
  Natural log of Reactive Hyperemic Index, difference FU – BL: 0.03±0.47
[2]; udenafil 125 mg QD, N=6
  Augmentation Index adjusted to HR 75, follow-up measurement: 1.90±8.65
  Natural log of Reactive Hyperemic Index, follow-up measurement: 0.52±0.34
  Natural log of Reactive Hyperemic Index, difference FU – BL: −0.10±0.38
[2]; all udenafil subjects, N=27
  Natural log of Reactive Hyperemic Index, difference FU – BL: −0.02±0.30
[3]
  Udenafil terminal half-life: ~16 h
[4]; across the five dosing cohorts
  Dose dependence of oral clearance (CL/F): decreased with increasing dose
[4]; human, plasma, po, 37.5 mg, Udenafil Cmax, oral udenafil 37.5 mg bid for five days, mean (%CV), N=6
  Cmax: 152 ng/mL
[4]; male (N=17) vs female (N=13), oral udenafil 5 days
  Effect of gender on dose-normalized Cmax and Cavg: not different for the male and female patients
[4]; [10]
  Fold increase of mean udenafil AUC0−τ with dose: 4 fold
  Fold increase of mean udenafil Cmax with dose: 4.6 fold
[4]; [11]
  Udenafil CL/F (oral clearance): 39.9 (36) L/h
[4]; [12]
  Udenafil CL/F (oral clearance): 53.3 (40) L/h
[4]; [13]
  Udenafil CL/F (oral clearance): 43.3 (39) L/h

## CCCOc1ccc(S(N)(=O)=O)cc1-c1nc2c(CCC)nn(C)c2c(=O)[nH]1 [DA-8164]
[5]
  Potency of DA-8164 relative to udenafil: equipotent
[4]; metabolite, oral udenafil 37.5 mg bid for five days, N=6
  DA-8164 T½ (harmonic mean half-life, 0.693/mean kel): 14.1 h
[4]; [14]
  DA-8164 Cavg (AUC0−τ/τ): 108 (55) ng/mL
  DA-8164 Tmax: 2.1 (78) h
  DA-8164 kel: 0.0491 (16) h
[4]; metabolite, oral udenafil 37.5 mg bid for five days, τ = 12 hours, mean (%CV), N=6
  DA-8164 AUC0−τ: 1290 (55) ng*h/mL
[4]; metabolite, oral udenafil 37.5 mg daily for five days, N=6
  DA-8164 T½ (harmonic mean half-life, 0.693/mean kel): 14.6 h
[4]; [15]
  DA-8164 Cavg (AUC0−τ/τ): 36.7 (43) ng/mL
  DA-8164 Tmax: 3.1 (51) h
  DA-8164 kel: 0.0474 (34) h
[4]; metabolite, oral udenafil 125 mg daily for five days, N=6
  DA-8164 T½ (harmonic mean half-life, 0.693/mean kel): 14.5 h
[4]; [16]
  DA-8164 Cavg (AUC0−τ/τ): 145 (14) ng/mL
  DA-8164 Tmax: 3.8 (35) h
  DA-8164 kel: 0.0480 (17) h
[4]; [17]
  Fold increase of mean DA-8164 AUC0−τ with udenafil dose: 4 fold
  Fold increase of mean DA-8164 Cmax with udenafil dose: 4.2 fold
[4]; [11]
  DA-8164 Cmax: 159 (52) ng/mL
[4]; [12]
  DA-8164 Cmax: 61.3 (46) ng/mL
[4]; [13]
  DA-8164 Cmax: 256 (13) ng/mL
[4]; [18]
  Fold increase of mean DA-8164 AUC0−τ with udenafil dose: 1.9 fold
  Fold increase of mean DA-8164 Cmax with udenafil dose: 1.8 fold
